Test results as given in patent US12054660B2, “Compound, composition, cured substance, optically anisotropic body, optical element, and light guide element” (FUJIFILM Corporation, priority 2021, dated 2024).

Experiments:
Assay type in all cases: physicochemical
[1] = Evaluation of liquid crystallinity (hot stage, polarization microscope); set-up: key: A case of having liquid crystallinity was evaluated as A; a case of having no liquid crystallinity was evaluated as B; conditions: heated on a hot stage
Excerpt: As a specific observation method, optical anisotropy and fluidity derived from the liquid crystal phase can be checked by carrying out an observation under a polarization microscope while heating or lowering the temperature of the compound with a hot stage or the like.
The respective compounds of Examples and Comparative Examples (the compounds A-1, A-3 to A-20, and the compounds RA-1 and RA-2) were heated on a hot stage and observed with a polarization microscope, and the phase transition temperature was measured to evaluate the presence or absence of liquid crystallinity. A case of having liquid crystallinity was evaluated as A, and a case of having no liquid crystallinity was evaluated as B. The results are shown in Table 1.

[2] = Measurement of Δn (refractive index anisotropy), wedge-shaped liquid crystal cell; conditions: 550 nm, 30° C. or lower limit temperature of nematic phase+0 to 10° C.; some extrapolated from 1/2 mixture with L-1-1
Experimental: The Δn of each of the compounds of Examples and Comparative Examples (the compounds A-1, A-3 to A-20, and the compounds RA-1 and RA-2), which are the compounds to be measured, was measured by a method using a wedge-shaped liquid crystal cell described on page 202 in the Liquid crystal handbook (edited by the liquid crystal handbook editorial board, published by Maruzen Co., Ltd., 2000). An was defined as a measured value at a wavelength of 550 nm at 30° C. or the lower limit temperature of the nematic phase+0° C. to 10° C. In a case of a compound which is liable to crystallize or a compound having no liquid crystallinity, evaluation was carried out using a mixture thereof with the other liquid crystal compound, and Δn was estimated from the extrapolated value of the measured value thereof. The following L-1-1 was used as the other liquid crystal compound. As the above mixture, a mixture obtained by mixing at a ratio of the compound to be measured/the L-1-1=1/2 (in terms of mass ratio) was used.
A case where Δn was 0.35 or more was evaluated as A, a case where Δn was 0.32 or more and less than 0.35 was evaluated as B, a case where Δn was 0.30 or more and less than 0.32 was evaluated as C, and a case where Δn was less than 0.30 was evaluated as D. The results are shown in Table 1.

[3] = Evaluation of solubility in methyl ethyl ketone; conditions: precipitation concentration in methyl ethyl ketone at room temperature (25° C.)
Experimental: The solubility of each of the compounds of Examples and Comparative Examples (the compounds A-1, A-3 to A-20, and the compounds RA-1 and RA-2) in methyl ethyl ketone was evaluated. A solution in which the compound was ultrasonically dissolved or dissolved by heating was produced.

[4] = Evaluation of durability (moisture-heat resistance test) of optically anisotropic layer; conditions: rate of change in Re of layer (25 parts compound/75 parts L-1) after 136 hours at 100° C., 95% RH
Experimental: (§1) As shown below, the durability of the optically anisotropic layer produced using the composition containing each of the compounds A-1 and A-3 to A-20, and the compounds RA-1 and RA-2 was evaluated.
(§2) A coating composition having the following composition was prepared and applied by spin coating onto a rubbing-treated glass attached with an alignment film.
(§3) The polymerizable liquid crystal compound L-1 is a mixture obtained by mixing at a ratio of the following L-1-1/L-1-2/L-1-3=84/14/2 (in terms of mass ratio).
(§4) Re is an in-plane retardation. Rate of change in Re (%)=[100×{|(Re after test)−(Re before test)|}/(Re before test)]
(§5) Re was measured with Axoscan manufactured by Axometrics, Inc. at a wavelength of 550 nm, and the measurement temperature was set to room temperature.
The produced optically anisotropic layer was allowed to be left for 136 hours at 100° C. and a relative humidity of 95% RH, whereby a moisture-heat resistance test was carried out. The rate of change in Re before and after the durability test was evaluated, the durability in a case where the rate of change in Re was less than 10% was evaluated as A, and the durability in a case where the rate of change in Re was 10% or more was evaluated as B. The smaller the rate of change in Re, the more excellent the durability.

[5] = Evaluation of light resistance of optically anisotropic layer; conditions: rate of change in Re of layer (25 parts compound/75 parts L-1) after xenon irradiation 50 hours, 63° C., 50% RH, oxygen-blocking
Experimental: as §1, §2, §3
The produced optically anisotropic layers for light resistance/durability tests were irradiated with light using a Super Xenon Weather Meter SX75 manufactured by Suga Test Instruments Co., Ltd. Using KU-1000100 manufactured by King Seisakusho Co., Ltd. as an ultraviolet ray cut filter, irradiation with 5 million 1× of light was carried out for 50 hours under the oxygen-blocking conditions to carry out a light resistance test. The temperature of the specimen to be tested (the temperature inside the test device) was set to 63° C. The relative humidity in the test device was 50% RH.
The Re of the optically anisotropic layer before and after the light resistance test was measured, the light resistance in a case where the rate of change in Re described below was less than 10% was evaluated as A, and the light resistance in a case where the rate of change in Re was 10% or more was evaluated as B. The smaller the rate of change in Re, the more excellent the light resistance.
as §4, §5

CC(=O)OCCSc1ccc(C#Cc2ccc(CSc3ccc(C#Cc4ccc(CCOC(C)=O)cc4)cc3)cc2C)cc1 [Compound A-1]
Liquid crystallinity [1]: B
Δn [2]: A (A case where Δn was 0.35 or more was evaluated as A)
Solubility [3]: A (the solubility in a case where the precipitation concentration was 10% by mass or more was evaluated as A)
Durability [4]: B (the durability in a case where the rate of change in Re was 10% or more was evaluated as B)
Light resistance [5]: A (the light resistance in a case where the rate of change in Re described below was less than 10% was evaluated as A)

C=CC(=O)OCCSc1ccc(C#Cc2ccc(COc3ccc(C#Cc4ccc(SCCOC(=O)C=C)cc4)cc3C(=O)OC)cc2)cc1 [Compound A-3]
Liquid crystallinity [1]: A
Δn [2]: A (A case where Δn was 0.35 or more was evaluated as A)
Solubility [3]: A (the solubility in a case where the precipitation concentration was 10% by mass or more was evaluated as A)
Durability [4]: A (the durability in a case where the rate of change in Re was less than 10% was evaluated as A)
Light resistance [5]: A (the light resistance in a case where the rate of change in Re described below was less than 10% was evaluated as A)

C=CC(=O)OCCSc1ccc(C#Cc2ccc(C(=O)Oc3ccc(C#Cc4ccc(SCCOC(=O)C=C)cc4)cc3C(=O)OC)cc2)cc1 [Compound A-4]
Liquid crystallinity [1]: A
Δn [2]: A (A case where Δn was 0.35 or more was evaluated as A)
Solubility [3]: A (the solubility in a case where the precipitation concentration was 10% by mass or more was evaluated as A)
Durability [4]: A (the durability in a case where the rate of change in Re was less than 10% was evaluated as A)
Light resistance [5]: B (the light resistance in a case where the rate of change in Re was 10% or more was evaluated as B)

C=CC(=O)OCCSc1ccc(C#Cc2ccc(SCc3ccc(C#Cc4ccc(SCCOC(=O)C=C)cc4)c(OC)c3)cc2)cc1 [Compound A-5]
Liquid crystallinity [1]: B
Δn [2]: A (A case where Δn was 0.35 or more was evaluated as A)
Solubility [3]: A (the solubility in a case where the precipitation concentration was 10% by mass or more was evaluated as A)
Durability [4]: A (the durability in a case where the rate of change in Re was less than 10% was evaluated as A)
Light resistance [5]: A (the light resistance in a case where the rate of change in Re described below was less than 10% was evaluated as A)

C=CC(=O)OCCSc1ccc(C#Cc2ccc(COc3ccc(C#Cc4ccc(SCCOC(=O)C=C)cc4)cc3C)cc2)cc1 [Compound A-6]
Liquid crystallinity [1]: A
Δn [2]: A (A case where Δn was 0.35 or more was evaluated as A)
Solubility [3]: A (the solubility in a case where the precipitation concentration was 10% by mass or more was evaluated as A)
Durability [4]: A (the durability in a case where the rate of change in Re was less than 10% was evaluated as A)
Light resistance [5]: A (the light resistance in a case where the rate of change in Re described below was less than 10% was evaluated as A)

CC(=O)OCCSc1ccc(C#Cc2ccc(COc3ccc(C#Cc4ccc(CCOC(C)=O)cc4)cc3)cc2C)cc1 [Compound A-13]
Liquid crystallinity [1]: A
Δn [2]: B (a case where Δn was 0.32 or more and less than 0.35 was evaluated as B)
Solubility [3]: A (the solubility in a case where the precipitation concentration was 10% by mass or more was evaluated as A)
Durability [4]: B (the durability in a case where the rate of change in Re was 10% or more was evaluated as B)
Light resistance [5]: A (the light resistance in a case where the rate of change in Re described below was less than 10% was evaluated as A)

C=CC(=O)OCCSc1ccc(C#Cc2ccc(COc3ccc(OCc4ccc(C#Cc5ccc(SCCOC(=O)C=C)cc5)cc4)c(C(=O)OC)c3)cc2)cc1 [Compound A-14]
Liquid crystallinity [1]: A
Δn [2]: A (A case where Δn was 0.35 or more was evaluated as A)
Solubility [3]: B (the solubility in a case where the precipitation concentration was less than 10% by mass was evaluated as B)
Durability [4]: A (the durability in a case where the rate of change in Re was less than 10% was evaluated as A)
Light resistance [5]: A (the light resistance in a case where the rate of change in Re described below was less than 10% was evaluated as A)

CC(=O)OCCSc1ccc(C#Cc2ccc(OCc3ccc(C#Cc4ccc(COc5ccc(C#Cc6ccc(SCCOC(C)=O)cc6)cc5C)cc4)cc3)c(C)c2)cc1 [Compound A-15]
Liquid crystallinity [1]: A
Δn [2]: A (A case where Δn was 0.35 or more was evaluated as A)
Solubility [3]: B (the solubility in a case where the precipitation concentration was less than 10% by mass was evaluated as B)
Durability [4]: B (the durability in a case where the rate of change in Re was 10% or more was evaluated as B)
Light resistance [5]: A (the light resistance in a case where the rate of change in Re described below was less than 10% was evaluated as A)

C=CC(=O)OCCSc1ccc(C#Cc2ccc(OCc3ccc(C#Cc4ccc(SCCOC(=O)C=C)cc4)s3)c(C(=O)OC)c2)cc1 [Compound A-16]
Liquid crystallinity [1]: A
Δn [2]: A (A case where Δn was 0.35 or more was evaluated as A)
Solubility [3]: A (the solubility in a case where the precipitation concentration was 10% by mass or more was evaluated as A)
Durability [4]: A (the durability in a case where the rate of change in Re was less than 10% was evaluated as A)
Light resistance [5]: B (the light resistance in a case where the rate of change in Re was 10% or more was evaluated as B)

C=CC(=O)OCCOc1ccc(C#Cc2ccc(SCCSc3ccc(C#Cc4ccc(OCCOC(=O)C=C)c(C)c4)cc3)cc2)cc1C [Compound A-17]
Liquid crystallinity [1]: B
Δn [2]: A (A case where Δn was 0.35 or more was evaluated as A)
Solubility [3]: A (the solubility in a case where the precipitation concentration was 10% by mass or more was evaluated as A)
Durability [4]: A (the durability in a case where the rate of change in Re was less than 10% was evaluated as A)
Light resistance [5]: A (the light resistance in a case where the rate of change in Re described below was less than 10% was evaluated as A)

C=CC(=O)OCCSc1ccc(C#Cc2ccc(OCCOc3ccc(C#Cc4ccc(SCCOC(=O)C=C)cc4)cc3C(=O)OC)c(C(=O)OC)c2)cc1 [Compound A-18]
Liquid crystallinity [1]: A
Δn [2]: A (A case where Δn was 0.35 or more was evaluated as A)
Solubility [3]: A (the solubility in a case where the precipitation concentration was 10% by mass or more was evaluated as A)
Durability [4]: A (the durability in a case where the rate of change in Re was less than 10% was evaluated as A)
Light resistance [5]: A (the light resistance in a case where the rate of change in Re described below was less than 10% was evaluated as A)
